In ChEMBL document CHEMBL1909046, “DrugMatrix in vitro pharmacology data”:

Experiments:
Acetylcholinesterase = Acetylcholinesterase (Homo sapiens, UniProt P22303); test: DRUGMATRIX: Acetylcholinesterase enzyme inhibition (substrate: acetylthiocholine); assay type: cell-based, HEK293; conditions: hek293; Not Active = under 50% inhibition at 10 µM
Carbonic anhydrase 2 = Carbonic anhydrase 2 (Homo sapiens, UniProt P00918); test: DRUGMATRIX: Carbonic Anhydrase II enzyme inhibition (substrate: 4-Nitrophenyl acetate (4-NPA)); assay type: tissue-based, Erythrocyte; conditions: erythrocyte; Not Active = under 50% inhibition at 10 µM
[1] = target: Sodium-dependent dopamine transporter (Homo sapiens, UniProt Q01959); test: DRUGMATRIX: Dopamine Transporter radioligand binding (ligand: [125I] RTI-55); assay type: cell membranes, CHO-K1, Membrane; conditions: cho-k1; Not Active = under 50% inhibition at 10 µM
[2] = target: Protein kinase C alpha type (Homo sapiens, UniProt P17252); assay type: cell-based; conditions: sf9;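 further: inhibition of PKCalpha kinase activity measured in an enzyme assay with histone as the phosphorylation substrate; in other assays of this panel Not Active means under 50% inhibition at 10 µM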
[3] = DRUGMATRIX: GABAA, Flunitrazepam, Central radioligand binding (ligand: [3H] Flunitrazepam); assay type: cell membranes, Rattus norvegicus, Wistar, Brain, Membrane; conditions: Not Active = under 50% inhibition at 10 µM
[4] = target: T1, Vasoactive intestinal polypeptide receptor 1 (Homo sapiens, UniProt P32241); assay type: cell membranes, Membrane; conditions: ht-29; further: in other assays of this panel Not Active means under 50% inhibition at 10 µM
T1 sequence (P32241 whole entry): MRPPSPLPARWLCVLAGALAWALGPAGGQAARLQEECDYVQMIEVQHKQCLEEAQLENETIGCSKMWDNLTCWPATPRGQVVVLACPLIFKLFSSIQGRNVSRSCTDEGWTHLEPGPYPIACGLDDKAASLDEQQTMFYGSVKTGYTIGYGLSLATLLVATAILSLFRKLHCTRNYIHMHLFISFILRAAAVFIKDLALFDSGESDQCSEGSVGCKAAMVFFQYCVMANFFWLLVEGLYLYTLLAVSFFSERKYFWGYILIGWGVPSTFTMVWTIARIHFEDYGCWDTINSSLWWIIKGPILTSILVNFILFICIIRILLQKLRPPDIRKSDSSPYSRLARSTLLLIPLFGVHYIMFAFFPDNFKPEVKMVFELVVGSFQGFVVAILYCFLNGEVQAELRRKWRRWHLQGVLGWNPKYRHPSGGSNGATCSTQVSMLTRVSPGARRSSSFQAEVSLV

Cytochrome P450 2E1 = Cytochrome P450 2E1 (Homo sapiens, UniProt P05181); conditions: bti-tn-5b1-4; further: in other assays of this panel Not Active means under 50% inhibition at 10 µM
Sequence of Cytochrome P450 2E1 (P05181 whole entry): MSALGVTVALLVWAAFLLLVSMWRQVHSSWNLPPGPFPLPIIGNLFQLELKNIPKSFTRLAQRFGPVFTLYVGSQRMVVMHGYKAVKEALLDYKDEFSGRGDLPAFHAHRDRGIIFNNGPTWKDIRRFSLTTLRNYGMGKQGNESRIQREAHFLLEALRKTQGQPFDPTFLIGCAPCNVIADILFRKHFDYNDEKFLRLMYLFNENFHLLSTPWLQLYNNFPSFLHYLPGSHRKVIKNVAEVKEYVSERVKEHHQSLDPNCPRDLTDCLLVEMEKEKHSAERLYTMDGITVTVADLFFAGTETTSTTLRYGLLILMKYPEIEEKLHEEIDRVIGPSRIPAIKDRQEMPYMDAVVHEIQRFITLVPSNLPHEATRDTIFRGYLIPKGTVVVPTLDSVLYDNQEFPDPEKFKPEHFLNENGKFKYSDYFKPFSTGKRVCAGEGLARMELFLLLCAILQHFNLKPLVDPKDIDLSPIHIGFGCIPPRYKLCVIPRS

Sequence of Acetylcholinesterase (P22303 whole entry): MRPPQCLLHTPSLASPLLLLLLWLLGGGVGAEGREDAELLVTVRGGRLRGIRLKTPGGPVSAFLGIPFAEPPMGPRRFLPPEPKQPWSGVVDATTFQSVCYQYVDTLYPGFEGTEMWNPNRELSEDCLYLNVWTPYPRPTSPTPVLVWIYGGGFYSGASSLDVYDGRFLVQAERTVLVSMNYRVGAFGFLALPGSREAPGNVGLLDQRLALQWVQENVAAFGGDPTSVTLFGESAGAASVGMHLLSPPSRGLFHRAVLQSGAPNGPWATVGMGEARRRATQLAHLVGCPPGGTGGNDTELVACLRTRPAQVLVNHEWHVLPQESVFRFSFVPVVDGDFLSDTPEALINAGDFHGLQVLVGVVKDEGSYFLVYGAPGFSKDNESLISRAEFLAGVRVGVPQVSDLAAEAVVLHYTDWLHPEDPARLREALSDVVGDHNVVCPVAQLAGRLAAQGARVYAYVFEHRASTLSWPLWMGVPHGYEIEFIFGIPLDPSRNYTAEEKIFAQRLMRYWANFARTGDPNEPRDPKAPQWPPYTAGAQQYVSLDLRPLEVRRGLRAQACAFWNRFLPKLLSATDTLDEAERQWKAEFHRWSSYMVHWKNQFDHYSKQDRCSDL
Sequence of Sodium-dependent dopamine transporter (Q01959 whole entry): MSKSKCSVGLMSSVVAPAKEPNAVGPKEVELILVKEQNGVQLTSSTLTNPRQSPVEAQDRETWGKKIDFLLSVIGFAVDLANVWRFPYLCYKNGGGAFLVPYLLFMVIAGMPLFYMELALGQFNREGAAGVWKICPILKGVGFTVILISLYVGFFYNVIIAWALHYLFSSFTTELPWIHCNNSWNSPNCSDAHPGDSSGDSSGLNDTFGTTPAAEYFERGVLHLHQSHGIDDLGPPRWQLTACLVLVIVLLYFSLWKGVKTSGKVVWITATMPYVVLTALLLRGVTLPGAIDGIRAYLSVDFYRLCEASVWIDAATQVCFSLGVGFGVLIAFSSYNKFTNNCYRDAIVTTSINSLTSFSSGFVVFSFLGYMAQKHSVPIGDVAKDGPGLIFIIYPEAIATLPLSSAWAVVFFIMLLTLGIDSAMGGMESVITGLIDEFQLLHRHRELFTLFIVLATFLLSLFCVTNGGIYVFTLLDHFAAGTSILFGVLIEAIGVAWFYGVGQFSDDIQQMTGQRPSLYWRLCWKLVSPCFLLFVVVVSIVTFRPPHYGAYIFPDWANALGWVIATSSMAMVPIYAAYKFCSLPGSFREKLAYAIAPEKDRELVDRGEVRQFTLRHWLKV

COc1cc(CNC(=O)CCCC/C=C/C(C)C)ccc1O [CAPSAICIN]
Not Active: IC50 (Acetylcholinesterase) | IC50 (Carbonic anhydrase 2) | IC50 [1] | IC50 [2] | IC50 [3] | Ki [3] | IC50 [4] | IC50 (Cytochrome P450 2E1) | Ki (Cytochrome P450 2E1)

C[C@H](C(=O)O)c1cccc(C(=O)c2ccccc2)c1 [DEXKETOPROFEN]
Not Active: IC50 (Acetylcholinesterase) | IC50 (Carbonic anhydrase 2) | IC50 [1] | IC50 [2] | IC50 [3] | Ki [3] | IC50 [4] | IC50 (Cytochrome P450 2E1) | Ki (Cytochrome P450 2E1)

NC[C@@H]1O[C@H](O[C@H]2[C@@H](O)[C@H](O[C@@H]3[C@@H](O)[C@H](N)C[C@H](N)[C@H]3O[C@H]3O[C@H](CN)[C@@H](O)[C@H](O)[C@H]3N)O[C@@H]2CO)[C@H](N)[C@@H](O)[C@@H]1O [FRAMYCETIN]
Not Active: IC50 (Acetylcholinesterase) | IC50 (Carbonic anhydrase 2) | IC50 [1] | IC50 [2] | IC50 [3] | Ki [3] | IC50 [4] | IC50 (Cytochrome P450 2E1) | Ki (Cytochrome P450 2E1)

C[C@]12C/C(=C/O)C(=O)C[C@@H]1CC[C@@H]1[C@@H]2CC[C@@]2(C)[C@H]1CC[C@]2(C)O [OXYMETHOLONE]
Not Active: IC50 (Acetylcholinesterase) | IC50 (Carbonic anhydrase 2) | IC50 [1] | IC50 [2] | IC50 [3] | Ki [3] | IC50 [4] | IC50 (Cytochrome P450 2E1) | Ki (Cytochrome P450 2E1)

CCOC(=O)[C@H](CCc1ccccc1)N[C@@H](C)C(=O)N1Cc2ccccc2C[C@H]1C(=O)O
Not Active: IC50 (Acetylcholinesterase) | IC50 (Carbonic anhydrase 2) | IC50 [1] | IC50 [2] | IC50 [3] | Ki [3] | IC50 [4] | IC50 (Cytochrome P450 2E1) | Ki (Cytochrome P450 2E1)

C=C1/C(=C\C=C2/CCC[C@]3(C)[C@@H]([C@H](C)CCCC(C)C)CC[C@@H]23)C[C@@H](O)C[C@@H]1O [ALFACALCIDOL]
Not Active: IC50 (Acetylcholinesterase) | IC50 (Carbonic anhydrase 2) | IC50 [1] | IC50 [2] | IC50 [3] | Ki [3] | IC50 [4] | IC50 (Cytochrome P450 2E1) | Ki (Cytochrome P450 2E1)

CCCCC1C(=O)N(c2ccccc2)N(c2ccccc2)C1=O [PHENYLBUTAZONE]
Not Active: IC50 (Acetylcholinesterase) | IC50 (Carbonic anhydrase 2) | IC50 [1] | IC50 [2] | IC50 [3] | Ki [3] | IC50 [4] | IC50 (Cytochrome P450 2E1) | Ki (Cytochrome P450 2E1)

[N-]=[N+]=CC(=O)OC[C@H](N)C(=O)O [AZASERINE]
Not Active: IC50 (Acetylcholinesterase) | IC50 (Carbonic anhydrase 2) | IC50 [1] | IC50 [2] | IC50 [3] | Ki [3] | IC50 [4] | IC50 (Cytochrome P450 2E1) | Ki (Cytochrome P450 2E1)

O=C(/C=C/c1ccc(O)c(O)c1)OCCc1ccccc1 [CAFFEIC ACID PHENETHYL ESTER]
Not Active: IC50 (Acetylcholinesterase) | IC50 (Carbonic anhydrase 2) | IC50 [1] | IC50 [2] | IC50 [3] | Ki [3] | IC50 [4] | IC50 (Cytochrome P450 2E1) | Ki (Cytochrome P450 2E1)

CCOC(=O)C1=C(C)NC(C)=C(C(=O)OC)C1c1cccc(Cl)c1Cl (stereo not drawn) [FELODIPINE]
Not Active: IC50 (Acetylcholinesterase) | IC50 (Carbonic anhydrase 2) | IC50 [1] | IC50 [2] | IC50 [3] | Ki [3] | IC50 [4] | IC50 (Cytochrome P450 2E1) | Ki (Cytochrome P450 2E1)

OCCO [ETHYLENE GLYCOL]
Not Active: IC50 (Acetylcholinesterase) | IC50 (Carbonic anhydrase 2) | IC50 [1] | IC50 [2] | IC50 [3] | Ki [3] | IC50 [4] | IC50 (Cytochrome P450 2E1) | Ki (Cytochrome P450 2E1)

C[C@H]([C@](O)(Cn1cncn1)c1ccc(F)cc1F)S(C)(=O)=O [GENACONAZOLE]
Not Active: IC50 (Acetylcholinesterase) | IC50 (Carbonic anhydrase 2) | IC50 [1] | IC50 [2] | IC50 [3] | Ki [3] | IC50 [4] | IC50 (Cytochrome P450 2E1) | Ki (Cytochrome P450 2E1)
